Values quoted from earlier work in patent US10227406B2, “Cannabinoid receptor-1 (CB1) monoclonal antibodies” (AMGEN INC., priority 2013, dated 2019).

Experiments:
[1] = cited from earlier work; for food intake, body weight gain and metabolic parameters: mice; for brain penetration: mouse, in vivo
[2] = multiple clinical trials; cited from earlier work
[3] = in vivo; cited from earlier work

Row | SMILES | food intake, body weight gain and metabolic parameters [1] | brain penetration [1] | adverse CNS effects [2] | body weight and metabolic parameters [3]
1 | Cc1c(C(=O)NN2CCS(=O)(=O)CC2)nn(-c2ccc(Cl)cc2Cl)c1-c1ccc(C#CCCC#N)cc1 [AM6545] | reduce food intake and body weight gain and improve multiple metabolic parameters | poor brain penetration | – | –
2 | CC(C)[C@H](N=C(NS(=O)(=O)c1ccc(Cl)cc1)N1C[C@H](c2ccccc2)C(c2ccc(Cl)cc2)=N1)C(N)=O [JD5037] | reduce food intake and body weight gain and improve multiple metabolic parameters | poor brain penetration | – | –
3 | Cc1c(C(=O)NN2CCCCC2)nn(-c2ccc(Cl)cc2Cl)c1-c1ccc(Cl)cc1 [rimonabant] | – | – | increased the incidence of anxiety, depression, and suicidal ideation | reduce body weight and improve metabolic parameters
4 | C[C@H](NC(=O)C(C)(C)Oc1ccc(C(F)(F)F)cn1)[C@@H](Cc1ccc(Cl)cc1)c1cccc(C#N)c1 [taranabant] | – | – | – | reduce body weight and improve metabolic parameters
